From patent publication US8450319B2, “Pyrrolopyridazinone compound” (Ube Industries, Ltd., priority 2006, dated 2013)
pIC50: −log10 of the molar value. Where a name gives a salt, the structure may show the parent alone.

What was measured:
PDE4 = assay: Measurement of PDE4 enzyme inhibiting action; assay type: biochemical, human; conditions: PDE4 enzyme solution from polymorphonuclear leukocytes of healthy volunteer; 0.2 μM [3H]cAMP, 30° C., 30 minutes; read-out: PDE4 inhibition IC50 value
Protocol: Preparation of a PDE4 enzyme solution was carried out according to the method of Cooper et al. (Br. J. Pharmacol., 126, 1863 (1999)) by modifying a part thereof. Heparin-treated peripheral blood from healthy volunteer was stratified by a blood cell separating solution (Polymorphprep™, available from AXIS-SHIELD PoC AS CO.), and centrifugation was carried out at 20° C. with 1900 rpm for 27 minutes to obtain polymorphonuclear leukocytes. The polymorphonuclear leukocytes were washed with a Hanks' balanced salt solution, then, a mixed solution comprising 70% of 10 mM 3-morpholinopropane sulfonic acid buffer solution (pH 7.4) containing 1 mM EGTA, 1 mM magnesium acetate and 5 mM dithiothreitol and 30% of ethylene glycol was added thereto to dissolve the same under ice-cooling, and the obtained cell dissolved solution was used as a PDE4 enzyme solution.
Measurement of PDE4 activity was carried out according to the method of Owens, et al. (Biochem. J., 326, 53 (1997)) by modifying a part thereof. The PDE4 enzyme solution was incubated with a compound to be tested dissolved in dimethylsulfoxide in 80 mM Tris-HCl buffer solution (pH 7.4) containing 0.2 μM [^3H] cAMP, 0.1 mM cGMP, 20 mM MgCl2 and 12 mM 2-mercaptoethanol at 30° C. for 30 minutes. Trifluoroacetic acid (final concentration: 1%) was added to the mixture to stop the reaction, and the reaction mixture was added to neutral alumina column (BOND ELUT™, available from VARIAN INC.). After the column was washed with 100 mM Tris-HCl buffer solution (pH 8.0), [^3H] 5′-AMP was eluted with 2N sodium hydroxide solution, and radioactivity of the eluent was measured by a liquid scintillation analyzer.
A concentration of the compound to be tested which inhibits 50% of PDE4 activity was calculated from the relation between the concentration of the compound to be tested which had been added and PDE4 activity as an IC50 value.

Structure (SMILES)	melting point	pIC50 (PDE4)
O=c1[nH]ncc2[nH]c(-c3ccc(OC(F)F)c4c3CC3(CCCC3)O4)cc12 [Example 49, 2-(7-Difluoromethoxy-2,3-dihydrobenzofuran-2-spiro-1′-cyclopentan-4-yl)-1,5-dihydropyrrolo[2,3-d]pyridazin-4-one]	290 to 295 °C	8.46
COc1ccc(-c2cc3c(=O)[nH]ncc3[nH]2)c2c1OC1(CCCC1)C2 [Example 50, 2-(2,3-Dihydro-7-methoxybenzofuran-2-spiro-1′-cyclopentan-4-yl)-1,5-dihydropyrrolo[2,3-d]pyridazin-4-one]	265 °C (dec.)	7.80
CC(C)Cc1c(-c2ccc(OC(F)F)c(OC3CC3)c2)[nH]c2cn[nH]c(=O)c12 [Example 9, 2-(3-Cyclopropoxy-4-difluoromethoxyphenyl)-3-isobutyl-1,5-dihydropyrrolo[2,3-d]pyridazin-4-one]	239 to 241 °C	8.74
O=c1[nH]ncc2[nH]c(-c3ccc(OC(F)F)c(OC4CC4)c3)c(COC3CCC3)c12 [Example 13, 3-Cyclobutoxymethyl-2-(3-cyclopropoxy-4-difluoromethoxyphenyl)-1,5-dihydropyrrolo[2,3-d]pyridazin-4-one]	95 to 100 °C	9.19
Cc1c(-c2ccc(OC(F)F)c3c2C=CC(C)(C)O3)[nH]c2cn[nH]c(=O)c12 [Example 53, 2-(8-Difluoromethoxy-2,2-dimethyl-2H-chromen-5-yl)-3-methyl-1,5-dihydropyrrolo[2,3-d]pyridazin-4-one HCl adduct]	–	7.77
O=c1[nH]ncc2[nH]c(-c3ccc(OC(F)F)c(OC4CC4)c3)c(C(O)c3ccccc3)c12 (stereo not shown) [Example 20, 2-(3-Cyclopropoxy-4-difluoromethoxyphenyl)-3-hydroxyphenylmethyl-1,5-dihydropyrrolo[2,3-d]pyridazin-4-one]	–	9.64
CC(C)(C)OCc1c(-c2ccc(OC(F)F)c(OC3CC3)c2)[nH]c2cn[nH]c(=O)c12 [Example 64, 3-(tert-Butoxymethyl)-2-(3-cyclopropoxy-4-difluoromethoxyphenyl)-1,5-dihydropyrrolo[2,3-d]pyridazin-4-one]	> 300 °C	–
COCc1c(-c2ccc(OC(F)F)c(OC3CC3)c2)[nH]c2cn[nH]c(=O)c12 [Example 11, 2-(3-Cyclopropoxy-4-difluoromethoxyphenyl)-3-methoxymethyl-1,5-dihydropyrrolo[2,3-d]pyridazin-4-one]	104 to 107 °C	–
O=c1[nH]ncc2[nH]c(-c3ccc(OC(F)F)c(OC4CC4)c3)c(Cl)c12 [Example 2, 3-Chloro-2-(3-cyclopropoxy-4-difluoromethoxyphenyl)-1,5-dihydropyrrolo[2,3-d]pyridazin-4-one]	281 to 283 °C	–
CCCc1c(-c2ccc(OC(F)F)c(OC3CC3)c2)[nH]c2cn[nH]c(=O)c12 [Example 6, 2-(3-Cyclopropoxy-4-difluoromethoxyphenyl)-3-propyl-1,5-dihydropyrrolo[2,3-d]pyridazin-4-one]	208 to 210 °C	–
O=c1[nH]ncc2[nH]c(-c3ccc(OC(F)F)c(OC4CC4)c3)c(CCC3CC3)c12 [Example 70, 2-(3-cyclopropoxy-4-difluoromethoxyphenyl)-3-(2-cyclopropylethyl)-1,5-dihydropyrrolo[2,3-d]pyridazin-4-one]	194 to 197 °C	–
O=c1[nH]ncc2[nH]c(-c3ccc(OC(F)F)c(OC4CC4)c3)c(Cc3cccc(F)c3)c12 [Example 23, 2-(3-Cyclopropoxy-4-difluoromethoxyphenyl)-3-(3-fluorobenzyl)-1,5-dihydropyrrolo[2,3-d]pyridazin-4-one]	208 to 210 °C	–
O=c1[nH]ncc2[nH]c(-c3ccc(OC(F)F)c(OC4CC4)c3)c(Cc3ccc(F)cc3)c12 [Example 24, 2-(3-Cyclopropoxy-4-difluoromethoxyphenyl)-3-(4-fluorobenzyl)-1,5-dihydropyrrolo[2,3-d]pyridazin-4-one]	193 to 195 °C	–
Cc1c(-c2ccc(OC(F)F)c(OC3CC3)c2)[nH]c2cn[nH]c(=O)c12 [Example 4, 2-(3-Cyclopropoxy-4-difluoromethoxyphenyl)-3-methyl-1,5-dihydropyrrolo[2,3-d]pyridazin-4-one]	245 to 246 °C	–
COc1ccc(-c2cc3c(=O)[nH]ncc3[nH]2)cc1OC1CCCC1 [Example 46, 2-(3-Cyclopentoxy-4-methoxyphenyl)-1,5-dihydropyrrolo[2,3-d]pyridazin-4-one]	290 °C (dec.)	–
O=C(O)c1cccc(Cc2c(-c3ccc(OC(F)F)c(OC4CC4)c3)[nH]c3cn[nH]c(=O)c23)c1 [Example 27, 3-(3-Carboxybenzyl)-2-(3-cyclopropoxy-4-difluoromethoxyphenyl)-1,5-dihydropyrrolo[2,3-d]pyridazin-4-one]	155 to 163 °C	–
O=c1[nH]ncc2[nH]c(-c3ccc(OC(F)F)c(OC4CC4)c3)c(COCC3CC3)c12 [Example 59, 2-(3-Cyclopropoxy-4-difluoromethoxyphenyl)-3-cyclopropylmethoxymethyl-1,5-dihydropyrrolo[2,3-d]pyridazin-4-one]	170 to 172 °C	–
O=c1[nH]ncc2[nH]c(-c3ccc(OC(F)F)c(OC4CC4)c3)c(CO)c12 [Example 10, 2-(3-Cyclopropoxy-4-difluoromethoxyphenyl)-3-hydroxymethyl-1,5-dihydropyrrolo[2,3-d]pyridazin-4-one]	190 to 191 °C	–
CCc1c(-c2ccc(OC(F)F)c(OCC3CC3)c2)[nH]c2cn[nH]c(=O)c12 [Example 37, 2-(3-Cyclopropylmethoxy-4-difluoromethoxyphenyl)-3-ethyl-1,5-dihydropyrrolo[2,3-d]pyridazin-4-one HCl adduct]	–	8.18
CCc1c(-c2ccc(OC(F)F)c(OCC3CC3)c2)[nH]c2cn[nH]c(=O)c12 (as salt: HCl) [Example 37, 2-(3-Cyclopropylmethoxy-4-difluoromethoxyphenyl)-3-ethyl-1,5-dihydropyrrolo[2,3-d]pyridazin-4-one HCl adduct]	224 to 227 °C	–
C=CCc1c(-c2ccc(OC(F)F)c(OC3CC3)c2)[nH]c2cn[nH]c(=O)c12 [Example 74, 2-(3-Cyclopropoxy-4-difluoromethoxyphenyl)-3-(2-propenyl)-1,5-dihydropyrrolo[2,3-d]pyridazin-4-one]	176 to 179 °C	–
Cc1c(-c2ccc(OC(F)F)c3c2C=CC(C)(C)O3)[nH]c2cn[nH]c(=O)c12 (as salt: HCl) [Example 53, 2-(8-Difluoromethoxy-2,2-dimethyl-2H-chromen-5-yl)-3-methyl-1,5-dihydropyrrolo[2,3-d]pyridazin-4-one HCl adduct]	> 300 °C	–
O=c1[nH]ncc2[nH]c(-c3ccc(OC(F)F)c(OC4CC4)c3)cc12 [Example 1, 2-(3-Cyclopropoxy-4-difluoromethoxyphenyl)-1,5-dihydropyrrolo[2,3-d]pyridazin-4-one]	287 to 292 °C	–
CC(C)Oc1cc(-c2[nH]c3cn[nH]c(=O)c3c2Cl)ccc1OC(F)F [Example 40, 3-Chloro-2-(4-difluoromethoxy-3-isopropoxyphenyl)-1,5-dihydropyrrolo[2,3-d]pyridazin-4-one]	248 to 262 °C	–
COc1ccc(-c2[nH]c3cn[nH]c(=O)c3c2Cl)cc1OC1CC1 [Example 42, 3-Chloro-2-(3-cyclopropoxy-4-methoxyphenyl)-1,5-dihydropyrrolo[2,3-d]pyridazin-4-one]	293 to 294 °C	–
CC(C)Oc1cc(-c2[nH]c3cn[nH]c(=O)c3c2Br)ccc1OC(F)F [Example 41, 3-Bromo-2-(4-difluoromethoxy-3-isopropoxyphenyl)-1,5-dihydropyrrolo[2,3-d]pyridazin-4-one]	–	8.00
O=c1[nH]ncc2[nH]c(-c3ccc(OC(F)F)c(OCC4CC4)c3)cc12 [Example 35, 2-(3-Cyclopropylmethoxy-4-difluoromethoxyphenyl)-1,5-dihydropyrrolo[2,3-d]pyridazin-4-one]	294 to 295 °C	–
CCC(C)OCc1c(-c2ccc(OC(F)F)c(OC3CC3)c2)[nH]c2cn[nH]c(=O)c12 (stereo not shown) [Example 63, 3-(sec-Butoxymethyl)-2-(3-cyclopropoxy-4-difluoromethoxyphenyl)-1,5-dihydropyrrolo[2,3-d]pyridazin-4-one]	103 to 106 °C	–
O=c1[nH]ncc2[nH]c(-c3ccc(OC(F)F)c(OC4CC4)c3)c(CCc3ccccc3)c12 [Example 21, 2-(3-Cyclopropoxy-4-difluoromethoxyphenyl)-3-phenethyl-1,5-dihydropyrrolo[2,3-d]pyridazin-4-one]	199 to 201 °C	–
C#CCc1c(-c2ccc(OC(F)F)c(OC3CC3)c2)[nH]c2cn[nH]c(=O)c12 [Example 71, 2-(3-Cyclopropoxy-4-difluoromethoxyphenyl)-3-(2-propynyl)-1,5-dihydropyrrolo[2,3-d]pyridazin-4-one]	245 to 246 °C	–
